Data: patent US20130269045A1, “HB-EGF DEFICIENT TRANSGENIC ANIMAL AND PRODUCTION METHOD THEREOF” (Nagasaki University, priority 2012, published 2013)

Experiments:
Type in all cases: in vivo
[1] = system: HB-EGF deficient type TG mouse; assay: Nest-building test (social behavior, interest and consideration for the surrounding environment); conditions: 1 mg/kg i.p. once a day for 7 days; for state of the nest: collecting the cotton in one place and making the nest: FIG. 16(a); for rating on 5-point scale for the state of the nest: score criteria 1-5 (5 = almost perfect nest), FIG. 16(b); for amount of the cotton that was not used for the nest-building: Nestlet 2.5 g provided, FIG. 16(c)
Method: The nest-building test was carried out in accordance with the following processes. First, from one hour before the darkness period (19:00) of the light and darkness cycle (light period 8:00 to 20:00/darkness period 20:00 to 8:00), each mouse was reared alone in a new cage, and provided with Nestlet (2.5 g) that is a material for the nest-building. During the darkness period 20:00 to 8:00, each mouse acted freely, in the next morning the nest shape that was made by each mouse was scored on 5-point scale, and the unused Nestlet amount was measured. The score was determined by the following criteria.
1: 90% of the Nestlet was unused.
2: the Nestlet was slightly used, however, 50 to 90% of the Nestlet was left unused.
3: 50 to 90% of the Nestlet was torn off finely, and the shape was not maintained as the nest.
5: 90% or more of the Nestlet was torn off finely, and used as a material of the nest, the nest was dug into a crater-like shape, and the (almost) perfect nest that buries the whole body of the mouse when viewed from the side was confirmed.
(§1) As the therapeutic agent, three drugs of atomoxetine (1 mg/kg), nefiracetam (1 mg/kg), and SA4503 (1 mg/kg) were used independently to administer into the abdominal cavity once a day for 7 days in a row. As a control of the therapeutic agent, saline was administered into the abdominal cavity once a day for 7 days in a row.

[2] = system: HB-EGF deficient type TG mouse; assay: Marble-burying behavior test (obsessive-compulsive disorder related anxiety-like behavior); conditions: 1 mg/kg i.p. once a day for 7 days; for number of the marbles that were buried: 25 marbles, 30 minutes, saline group: large, FIG. 17
Method: The marble-burying behavior test was carried out in accordance with the following processes. First, in a cage in which bedding was carpeted in around 5 cm depth, 25 blue-colored marbles with 17 mm were equally arranged, and the marble-burying behavior of each mouse were measured for 30 minutes. After a lapse of 30 minutes, when observed from straight above, the marbles those were buried two-thirds or more thereof with bedding were counted. Further, the acting amount of burying marbles was determined by SCANET. In the marble-burying behavior test, the more the number of marbles that buried after the test, the more the anxiety-like behavior enhanced.
as §1

[3] = system: HB-EGF deficient type TG mouse; assay: Cylindrical platform test (impulsivity), ratio of mice remained on the platform; conditions: for impulsivity (conclusion in words): HB-EGF deficient type TG mouse, 1 mg/kg i.p. once a day for 7 days; for ratio of the mice that were remained on the platform: HB-EGF deficient type mouse, 1 mg/kg into the abdominal cavity once a day for 7 days, column height 20 cm, diameter 10 cm, untreated TG only 20%, non-deficient 80% or more
Method: Further, the behavior of each mouse of the descending from the top of the platform to the floor was observed by classifying into the positive performing (=jumped down from the head) and the negative performing (=fall off from the tail).
as §1
In the mouse in which HB-EGF is not deficient, 80% or more of the mice were remained on the platform. On the other hand, in the HB-EGF deficient type mouse, only 20% of the mice were remained on the platform. However, in the case of administering atomoxetine to the HB-EGF deficient type mouse, 50% or more of the mice were remained on the platform. Further, in the case of administering nefiracetam to the HB-EGF deficient type mouse, 70% or more of the mice were remained on the platform.

| SMILES | state of the nest: collecting the cotton in one place and making the nest [1] | rating on 5-point scale for the state of the nest [1] | number of the marbles that were buried [2] | impulsivity (conclusion in words) [3] | ratio of the mice that were remained on the platform [3] | social behavior, interest and consideration for the surrounding environment (conclusion in words) [1] | amount of the cotton that was not used for the nest-building [1] | anxiety-like behavior related to obsessive-compulsive disorder (conclusion in words) [2] |
| --- | --- | --- | --- | --- | --- | --- | --- | --- |
| CNCC[C@@H](Oc1ccccc1C)c1ccccc1 [atomoxetine] | could not collect the cotton in one place and could not make the nest | ≤ 3 | the same level as that of the HB-EGF deficient type TG mouse into which saline had been administered | the impulsivity was suppressed | ≥ 50% |  |  |  |
| Cc1cccc(C)c1NC(=O)CN1CCCC1=O [nefiracetam] | could collect the cotton in one place and could make the nest | 5 | small | the impulsivity was suppressed | ≥ 70% | improved the social behavior, and the interest and consideration for the surrounding environment | around 0.1 g | the anxiety-like behavior related to obsessive-compulsive disorder was decreased |
| COc1ccc(CCN2CCN(CCCc3ccccc3)CC2)cc1OC [SA4503] | could collect the cotton in one place and could make the nest | 5 | the same level as that of the HB-EGF deficient type TG mouse into which saline had been administered |  |  | improved the social behavior, and the interest and consideration for the surrounding environment | around 0.1 g |  |
